Reference: patent US20190292155A1, “THERAPEUTIC INHIBITORY COMPOUNDS” (LifeSci Pharmaceuticals, Inc., priority 2016, published 2019)
Read-outs that look alike come from different tables or passages of the source.

Experiments:
[1] = molecular target: T1, human complement factor D (Homo sapiens, UniProt P00746); assay: In vitro enzyme inhibition of human complement factor D (Z-Lys-SBzl/DTNB, A405); type: biochemical
T1 construct: purchased R&D Systems 1824-SE
Summary of the method: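 Buffer 50 mM Tris/HCl pH 7.5, 1 M NaCl, 0.5% final DMSO; compounds pre-incubated with enzyme 5 min at room temperature, then Z-Lys-SBzl with DTNB added (each diluted to 200 μM before addition).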

[2] = system: alternative pathway (AP) hemolytic activity; assay: AP hemolysis inhibition assay; type: cell-based; settings: Normal Human Serum, chicken or rabbit erythrocytes
Method: The ability of the compounds disclosed herein to inhibit alternative pathway (AP) hemolytic activity was determined. […] In 100 μL reaction system, 1300 to […] final concentration of Normal Human Serum (CompTech) was incubated with compound for 15 min at 37° C. Then 2×10^6 cells/well of chicken or rabbit erythrocytes in assay buffer were added and incubated for an additional 60 min at 37° C. Positive control (100% lysis) consists of serum and RBC, and negative control (0% lysis) consists of assay buffer and RBC only. Samples were centrifuged at 2000 g for 5 min, and supernatants collected. […] Percentage lysis in each sample is calculated relative to positive control (100% lysis).

[3] = biochemical assay, substrate Z-Lys-SBzl, read-out: CFD IC50

T1 sequence (P00746 26-253): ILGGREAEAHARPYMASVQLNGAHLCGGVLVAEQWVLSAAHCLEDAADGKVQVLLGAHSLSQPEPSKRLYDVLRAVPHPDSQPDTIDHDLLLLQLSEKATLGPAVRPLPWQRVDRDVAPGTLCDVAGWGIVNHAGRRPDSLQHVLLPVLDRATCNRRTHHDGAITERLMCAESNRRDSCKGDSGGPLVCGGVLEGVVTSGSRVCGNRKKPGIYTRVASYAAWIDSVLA

With NC(=O)n1nc(CC(=O)N(CC(=O)NCc2cccc(Cl)c2F)C2CC2)c2ccccc21 [Example 8, 3-(2-((2-((3-chloro-2-fluorobenzyl)amino)-2-oxoethyl)(cyclopropyl)amino)-2-oxoethyl)-1H-indazole-1-carboxamide] the IC50 [1, 3] was under 0.1 µM and the EC50 [2] was 0.1 to 1 µM.

CC(C)N(CC(=O)Nc1cccc(Cl)n1)C(=O)Cn1nc(C(N)=O)c2ccccc21 [Example 12, 1-(2-((2-((6-chloropyridin-2-yl)amino)-2-oxoethyl)(isopropyl)amino)-2-oxoethyl)-1H-indazole-3-carboxamide] gave an IC50 [1] of 0.1 to 1 µM and an EC50 [2] of 0.1 to 1 µM.

Compound NC(=O)c1nn(CC(=O)N(CC(=O)Nc2cccc(Cl)n2)C2CC2)c2ccccc12 [Example 16, 1-(2-((2-((6-chloropyridin-2-yl)amino)-2-oxoethyl)(cyclopropyl)amino)-2-oxoethyl)-1H-indazole-3-carboxamide] has an IC50 [1] of 0.1 to 1 µM and an EC50 [2] of 0.1 to 1 µM.

NC(=O)n1nc(CC(=O)N(CC(=O)Nc2cccc(Cl)n2)C2CCC2)c2ccccc21 [Example 20, 3-(2-((2-((6-chloropyridin-2-yl)amino)-2-oxoethyl)(cyclobutyl)amino)-2-oxoethyl)-1H-indazole-1-carboxamide] gave an IC50 [1, 3] of 0.1 to 1 µM and an EC50 [2] of 0.1 to 1 µM.

In the case of NC(=O)c1nn(CC(=O)N(CC(=O)NCc2cccc(Cl)c2F)C2CC2)c2cnccc12 [Example 40, 1-(2-((2-((3-chloro-2-fluorobenzyl)amino)-2-oxoethyl)(cyclopropyl)amino)-2-oxoethyl)-1H-pyrazolo[3,4-c]pyridine-3-carboxamide], the IC50 [1, 3] is reported as under 0.1 µM and the EC50 [2] is reported as 0.1 to 1 µM.

CC(=O)c1nn(CC(=O)N(CC(=O)NCc2cccc(Cl)c2F)C2CC2)c2ccccc12 [Example 47, 2-(3-acetyl-1H-indazol-1-yl)-N-(2-((3-chloro-2-fluorobenzyl)amino)-2-oxoethyl)-N-cyclopropylacetamide] gave an IC50 [1, 3] of under 0.1 µM and an EC50 [2] of 0.1 to 1 µM.

CC(C)N(CC(=O)NCc1cccc(Cl)c1F)C(=O)Nc1cn(C(N)=O)c2ccccc12 [Example 50, 3-(3-(2-((3-chloro-2-fluorobenzyl)amino)-2-oxoethyl)-3-isopropylureido)-1H-indole-1-carboxamide] gave an IC50 [1, 3] of 0.1 to 1 µM and an EC50 [2] of 1 to 10 µM.

With NC(=O)c1nc(NC(=O)N(CC(=O)NCc2cccc(Cl)c2F)C2CC2)c2ccccn12 [Example 53, 1-(3-(2-((3-chloro-2-fluorobenzyl)amino)-2-oxoethyl)-3-cyclopropylureido)imidazo[1,5-a]pyridine-3-carboxamide] the IC50 [1, 3] was 0.1 to 1 µM and the EC50 [2] was 0.1 to 1 µM.
